Data: ChEMBL document CHEMBL4715867, “Amycolasporins and Dibenzoyls from Lichen-Associated Amycolatopsis hippodromi and Their Antibacterial and Anti-inflammatory Activities” (J Nat Prod, 2020)
In brackets after ≈: the same amount, converted by molar mass. Activity calls are given as the source filed them. No cut-off for these calls is given here.

Tests used:
Bacillus subtilis = assay: Antibacterial activity against Bacillus subtilis ATCC 6633 after 24 hrs by microbroth dilution method; format: functional
Staphylococcus aureus = assay: Antibacterial activity against Staphylococcus aureus ATCC 25923 after 24 hrs by microbroth dilution method; format: functional
Escherichia coli = assay: Antibacterial activity against Escherichia coli ATCC 25922 after 24 hrs by microbroth dilution method; format: functional
Candida albicans = assay: Antifungal activity against Candida albicans MYA-2867 at 100 ug/ml after 48 hrs by microbroth dilution method; format: functional, organism-based; details: dose 100.0 µg/ml
Candida parapsilosis = assay: Antifungal activity against Candida parapsilosis ATCC 22019 at 100 ug/ml after 48 hrs by microbroth dilution method; format: functional, organism-based; details: dose 100.0 µg/ml
Cryptococcus neoformans = assay: Antifungal activity against Cryptococcus neoformans ATCC 208821 at 100 ug/ml after 72 hrs by microbroth dilution method; format: functional, organism-based; details: dose 100.0 µg/ml
RAW264.7 [1] = assay: Inhibition of LPS-induced NO production in mouse RAW264.7 cells preincubated for 2 hrs followed by LPS-stimulation and measured after 24 hrs by Griess reagent based assay; format: functional, cell-based; details: dose 3.3-33 µM, time 26.0 hrs
RAW264.7 [2] = assay: Inhibition of LPS-induced NO production in mouse RAW264.7 cells assessed as reduction in iNOS protein expression preincubated for 2 hrs followed by LPS-stimulation and measured after 24 hrs by Western blot analysis; format: functional, cell-based; details: dose 3.3-33 µM, time 26.0 hrs

MIC (Bacillus subtilis) [µg/mL]	MIC (Staphylococcus aureus) [µg/mL]	MIC (Escherichia coli) [µg/mL]	Compound	Activity (Candida albicans)	Activity (Candida parapsilosis)	Activity (Cryptococcus neoformans)	inhibition (RAW264.7 [1])	inhibition (RAW264.7 [2])
25 (≈ 121 µM)	25 (≈ 121 µM)	25 (≈ 121 µM)	CO[C@@H]1CC(=O)c2cc(C(N)=O)ncc21	inactive	inactive	inactive	–	–
–	–	–	COc1ccc(C(=O)Cc2ccc(O)cc2)c(O)c1	–	–	–	Dose-dependent effect	Dose-dependent effect
25 (≈ 142 µM)	25 (≈ 142 µM)	25 (≈ 142 µM)	NC(=O)c1cc2c(cn1)CCC2=O	inactive	inactive	inactive	–	–

Compound	MIC (Bacillus subtilis) [µg/mL]	MIC (Staphylococcus aureus) [µg/mL]	MIC (Escherichia coli) [µg/mL]	Activity (Candida albicans)	Activity (Candida parapsilosis)	Activity (Cryptococcus neoformans)	inhibition (RAW264.7 [1])	inhibition (RAW264.7 [2])
COC(=O)[C@]1(O)C=Cc2cnc(C(N)=O)cc21	25 (≈ 107 µM)	25 (≈ 107 µM)	25 (≈ 107 µM)	inactive	inactive	inactive	Dose-dependent effect	Dose-dependent effect
